Measured values: patent publication US6462055B2, “Alpha-methylbenzyl-containing thiourea inhibitors of herpes viruses containing a phenylenediamine group” (Wyeth, priority 1998, dated 2002)
≈ marks a conversion by molar mass, not a printed value.

These molecules were tested on HCMV recombinant mutant virus (RV145) (assay: microbe, parasite or virus in culture). Settings: HCMV.
Assay type: cell-based, human cytomegalovirus
Description: Microtiter plate assay. Ninety-six well plate cultures of human foreskin fibroblasts are infected in the presence of inhibitor compound with a HCMV recombinant mutant virus whose genome contains the prokaryotic beta-glucuronidase gene (Jefferson, R. A., S. M. Burgess, and D. Hirsh. 1986. Beta-glucuronidase from Escherichia coli as a gene fusion marker. Proc. Natl. Acad. Sci. USA 83:8447-8451) whose expression is controlled by a viral promoter. An example of such a virus is RV145 (Jones, T. R., V. P. Muzithras, and Y. Gluzman. 1991. Replacement mutagenesis of the human cytomegalovirus genome: US10 and US11 gene products are nonessential. J. Virol. 65:5860-5872). Since it is under the control of a viral promoter, beta-glucuronidase expression is an indirect indicator of growth and replication of HCMV in this assay. At 96 hours post-infection, the infected cell lysates are prepared (using 50 mM sodium phosphate [pH7.0]containing 0.1% Triton X-100 and 0.1% sarkosyl) and assayed for beta-glucuronidase activity using a substrate for the enzyme which when cleaved yields either a product which can be measured […] in a spectrophotometer or fluorescently in a microfluorimeter. Examples of such substrates are p-nitrophenyl-beta-D-glucuronide and methylumbelliferylglucuronide, respectively. The presence of an antiviral compound is indicated by the reduced expression of the HCMV genome resident beta-glucuronidase gene, compared to the absence of inhibitor. […] Data from this assay generated using varying amounts of inhibitor compound is also used to estimate the IC50 of an inhibitor compound.

Compound	IC50 ug/ml HCMV
COc1cc(OC)c(NC(=S)Nc2ccc(NC(=O)c3cccc(F)c3F)cc2)cc1Cl [Example 186]	>10 µg/mL
COc1cc(OC)c(NC(=S)Nc2ccc(NC(=O)c3cc(F)ccc3F)cc2)cc1Cl [Example 187]	>10 µg/mL
COc1cc(OC)c(NC(=S)Nc2ccc(NC(=O)c3ccc(F)cc3F)cc2)cc1Cl [Example 188]	>10 µg/mL
COc1cc(OC)c(NC(=S)Nc2ccc(NC(=O)c3ccccc3NC(C)=O)cc2)cc1Cl [Example 189]	>10 µg/mL
COc1cc(OC)c(NC(=S)Nc2ccc(NC(=O)c3ccccc3N[S+](C)[O-])cc2)cc1Cl (centres unmarked) [Example 191]	>10 µg/mL
COc1cc(OC)c(NC(=S)Nc2ccc(NC(=O)c3ccc(F)c(F)c3F)cc2)cc1Cl [Example 192]	>10 µg/mL
COc1cc(OC)c(NC(=S)Nc2ccc(NC(=O)c3c(F)c(F)c(F)c(F)c3F)cc2)cc1Cl [Example 193]	>10 µg/mL
COc1cc(OC)c(NC(=S)Nc2ccc(NC(=O)c3ccccc3SC)cc2)cc1Cl [Example 194]	>10 µg/mL

What follows are molecules tested on HSV-1 (assay: HSV Antiviral (ELISA) Assay in Vero cells). Settings: HSV-1, Vero cells.
Assay type: cell-based, herpes simplex virus type 1
Outline: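 Viral replication was quantified by cell-fixed ELISA for HSV glycoprotein D, using a β-galactosidase reporter and fluorogenic umbelliferyl substrate, about 24 h after HSV-1 infection (MOI 0.006) of Vero cells. Compounds, at several concentrations, were added 30 min pre-infection. IC50 was derived from fluorescence relative to the compound-free signal.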

Compound	IC50 (ug/ml) HSV
COc1cc(OC)c(NC(=S)Nc2ccc(NC(=O)c3cccc(F)c3F)cc2)cc1Cl [Example 186]	0.2 µg/mL (≈ 0.418 µM)
COc1cc(OC)c(NC(=S)Nc2ccc(NC(=O)c3cc(F)ccc3F)cc2)cc1Cl [Example 187]	0.2 µg/mL (≈ 0.418 µM)
COc1cc(OC)c(NC(=S)Nc2ccc(NC(=O)c3ccc(F)cc3F)cc2)cc1Cl [Example 188]	1.2 µg/mL (≈ 2.51 µM)
COc1cc(OC)c(NC(=S)Nc2ccc(NC(=O)c3ccccc3NC(C)=O)cc2)cc1Cl [Example 189]	2.5 µg/mL (≈ 5.01 µM)
COc1cc(OC)c(NC(=S)Nc2ccc(NC(=O)c3ccccc3N[S+](C)[O-])cc2)cc1Cl (centres unmarked) [Example 191]	8 µg/mL (≈ 15.4 µM)
COc1cc(OC)c(NC(=S)Nc2ccc(NC(=O)c3ccc(F)c(F)c3F)cc2)cc1Cl [Example 192]	0.5 µg/mL (≈ 1.01 µM)
COc1cc(OC)c(NC(=S)Nc2ccc(NC(=O)c3c(F)c(F)c(F)c(F)c3F)cc2)cc1Cl [Example 193]	1.5 µg/mL (≈ 2.82 µM)
COc1cc(OC)c(NC(=S)Nc2ccc(NC(=O)c3ccccc3SC)cc2)cc1Cl [Example 194]	1.5 µg/mL (≈ 3.07 µM)

The molecules below were run on VZV strain Ellen (assay: VZV Antiviral (ELISA) Assay in human foreskin fibroblast cells). Settings: not given.
Assay type: cell-based, varicella-zoster virus
Outline: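 Low-MOI (<0.1) Ellen infection of HFF overnight; cell mix plated 3.5×10^4/well with compound, DMEM + 2% FBS, 3 d, 37° C, 5% CO2. Fix, anti-gpII mAb ELISA, MUG substrate, fluorescence. IC50 vs compound-free signal.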

Compound	IC50 (ug/ml) VZV
COc1cc(OC)c(NC(=S)Nc2ccc(NC(=O)c3cccc(F)c3F)cc2)cc1Cl [Example 186]	>10 µg/mL
COc1cc(OC)c(NC(=S)Nc2ccc(NC(=O)c3cc(F)ccc3F)cc2)cc1Cl [Example 187]	>10 µg/mL
COc1cc(OC)c(NC(=S)Nc2ccc(NC(=O)c3ccc(F)cc3F)cc2)cc1Cl [Example 188]	>10 µg/mL
COc1cc(OC)c(NC(=S)Nc2ccc(NC(=O)c3ccccc3NC(C)=O)cc2)cc1Cl [Example 189]	>10 µg/mL
COc1cc(OC)c(NC(=S)Nc2ccc(NC(=O)c3ccccc3N[S+](C)[O-])cc2)cc1Cl (centres unmarked) [Example 191]	>10 µg/mL
COc1cc(OC)c(NC(=S)Nc2ccc(NC(=O)c3ccc(F)c(F)c3F)cc2)cc1Cl [Example 192]	>10 µg/mL
COc1cc(OC)c(NC(=S)Nc2ccc(NC(=O)c3c(F)c(F)c(F)c(F)c3F)cc2)cc1Cl [Example 193]	3.8 µg/mL (≈ 7.14 µM)
COc1cc(OC)c(NC(=S)Nc2ccc(NC(=O)c3ccccc3SC)cc2)cc1Cl [Example 194]	>10 µg/mL

Same assay, conditions: 10 ug/ml

Compound	% inhibition 10 ug/ml VZV
COc1cc(OC)c(NC(=S)Nc2ccc(NC(=O)c3cccc(F)c3F)cc2)cc1Cl [Example 186]	52%
COc1cc(OC)c(NC(=S)Nc2ccc(NC(=O)c3cc(F)ccc3F)cc2)cc1Cl [Example 187]	53%
COc1cc(OC)c(NC(=S)Nc2ccc(NC(=O)c3ccc(F)cc3F)cc2)cc1Cl [Example 188]	22%
COc1cc(OC)c(NC(=S)Nc2ccc(NC(=O)c3ccccc3NC(C)=O)cc2)cc1Cl [Example 189]	59%
COc1cc(OC)c(NC(=S)Nc2ccc(NC(=O)c3ccccc3N[S+](C)[O-])cc2)cc1Cl (centres unmarked) [Example 191]	22%
COc1cc(OC)c(NC(=S)Nc2ccc(NC(=O)c3ccc(F)c(F)c3F)cc2)cc1Cl [Example 192]	14%
COc1cc(OC)c(NC(=S)Nc2ccc(NC(=O)c3c(F)c(F)c(F)c(F)c3F)cc2)cc1Cl [Example 193]	106%
COc1cc(OC)c(NC(=S)Nc2ccc(NC(=O)c3ccccc3SC)cc2)cc1Cl [Example 194]	45%
